This is an account of results in US7411064B2, “1-Heterocyclylalkyl-3-sulfonylazaindole or -azaindazole derivatives as 5-hydroxytryptamine-6 ligands” (Wyeth, priority 2002, dated 2008).

pKi: −log10 of the molar value. Counter-ions that a name gives are not always drawn.

Series [1] deals with human cloned 5-HT6 receptors (Homo sapiens, UniProt P50406).
Sequence of human cloned 5-HT6 receptors (P50406 whole entry): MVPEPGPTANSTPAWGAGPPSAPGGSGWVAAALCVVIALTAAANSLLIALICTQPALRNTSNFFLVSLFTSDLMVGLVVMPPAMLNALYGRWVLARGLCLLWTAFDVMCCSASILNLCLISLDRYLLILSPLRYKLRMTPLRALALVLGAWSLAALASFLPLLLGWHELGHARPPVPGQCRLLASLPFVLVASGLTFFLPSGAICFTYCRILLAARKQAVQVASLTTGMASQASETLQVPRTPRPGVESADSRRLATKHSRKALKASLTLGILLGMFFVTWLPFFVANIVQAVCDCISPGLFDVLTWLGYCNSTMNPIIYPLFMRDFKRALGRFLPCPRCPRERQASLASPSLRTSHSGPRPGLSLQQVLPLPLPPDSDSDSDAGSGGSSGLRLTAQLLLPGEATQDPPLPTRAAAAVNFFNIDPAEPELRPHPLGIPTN

The pKi is the negative decadic logarithm of the Ki, by convention in mol/L. A high value points to a low Ki. `O=S(=O)(c1cccc(Cl)c1)c1cn(CC2CCCN2Cc2ccccc2)c2ncccc12` (stereo not shown) [Example 6, 1-[(1-Benzylpyrrolidin-2-yl)methyl]-3-(3-chlorophenylsulfonyl)-1H-pyrrolo[2,3-b]pyridine] showed a pKi in series [1] of 6.88.

`O=S(=O)(c1ccccc1)c1cn(C[C@@H]2CCCN2)c2ncccc12` [Example 4, 3-(Phenylsulfonyl)-1-[(2S)-pyrrolidin-2-ylmethyl]-1H-pyrrolo[2,3-b]pyridine Hydrochloride] had a negative logarithm of the Ki (pKi) in series [1] of 7.18.

By melting point is commonly meant the temperature, or range, at which the solid turns liquid. Regarding `O=S(=O)(c1ccc(Cl)s1)c1cn(CC2CCCN2)c2ncccc12` (stereo not shown) (as salt: hydrochloride) [Example 15], the melting point lay within 106 to 107 °C.

On to `CN1CCCC1Cn1cc(S(=O)(=O)c2cccc(F)c2)c2cccnc21` (stereo not shown) [Example 12], for which, in series [1], the negative logarithm of the Ki (pKi) is 8.22.

Turning to `O=S(=O)(c1cccc(F)c1)c1cn(CC2CCCN2Cc2ccccc2)c2ncccc12` (stereo not shown) [Example 10], in series [1], the pKi was 6.76. This pKi is 1.46 log units lower than that of the compound before.

Regarding `O=S(=O)(c1cn(CC2CCCN2Cc2ccccc2)c2ncccc12)c1c(Cl)nc2sccn12` (stereo not shown) [Example 13], the melting point was in the range of 102 to 103 °C. In series [1], this compound had a negative logarithm of the Ki (pKi) of 7.24.

In the case of `O=S(=O)(c1ccccc1)c1cn(CC2CCCN2Cc2ccccc2)c2ncccc12` (stereo not shown) (as salt: hydrochloride) [Example 9], the melting point fell in the range of 218 to 220 °C.

The compound `O=S(=O)(c1cn(CC2CCCN2)c2ncccc12)c1c(Cl)nc2sccn12` (stereo not shown) (as salt: hydrochloride) [Example 14] had a melting point of 246 to 247 °C.

With `O=S(=O)(c1cccc(Cl)c1)c1cn(CC2CCCN2)c2ncccc12` (stereo not shown) [Example 7, 3-(3-Chlorophenylsulfonyl)-1-(pyrrolidin-2-ylmethyl)-1H-pyrrolo[2,3-b]pyridine], the pKi in series [1] was 8.52.

Take `O=S(=O)(c1ccc(Cl)s1)c1cn(CC2CCCN2)c2ncccc12` (stereo not shown) [Example 15]: the pKi in series [1] is 8.15. This pKi is 0.37 log units lower than that of the compound before.

For the compound `O=S(=O)(c1cccc(F)c1)c1cn(CC2CCCN2)c2ncccc12` (stereo not shown) [Example 11], the pKi in series [1] is 8.05.

`O=S(=O)(c1ccccc1)c1cn(C[C@H]2CCCN2)c2ncccc12` [Example 3, 3-(Phenylsulfonyl)-1-[(2R)-pyrrolidin-2-ylmethyl]-1H-pyrrolo[2,3-b]pyridine Hydrochloride] gave a pKi in series [1] of 7.92.

In the case of `CN1CCCC1Cn1cc(S(=O)(=O)c2cccc(F)c2)c2cccnc21` (stereo not shown) (as salt: hydrochloride) [Example 12], the melting point was in the range of 208 to 209 °C.

Take `O=S(=O)(c1cn(CC2CCCN2)c2ncccc12)c1c(Cl)nc2sccn12` (stereo not shown) [Example 14]: in series [1], the negative logarithm of the Ki (pKi) is 8.70.

In turn, `O=S(=O)(c1ccccc1)c1cn(CC2CCCN2Cc2ccccc2)c2ncccc12` (stereo not shown) [Example 9] had a pKi in series [1] of 6.79.

`O=S(=O)(c1cccc(F)c1)c1cn(CC2CCCN2)c2ncccc12` (stereo not shown) (as salt: hydrochloride) [Example 11]: the melting point fell in the range of 181 to 182 °C.

The compound `CN1CCCC1Cn1cc(S(=O)(=O)c2cccc(Cl)c2)c2cccnc21` (stereo not shown) [Example 8, 3-(3-Chlorophenylsulfonyl)-1-[(1-methylpyrrolidin-2-yl)methyl]-1H-pyrrolo[2,3-b]pyridine Hydrochloride] gave a pKi in series [1] of 8.15.

`O=S(=O)(c1cccc(F)c1)c1cn(CC2CCCN2Cc2ccccc2)c2ncccc12` (stereo not shown) (as salt: hydrochloride) [Example 10] showed a melting point of 128 to 129 °C.
